The text below walks through data of patent publication US9480671B2, “Reduction of risk of obesity” (Nestec S.A., priority 2009, dated 2016).

For one data set, the system named is clonal preadipocytes. As to conditions: compared to PPAR agonists or saturated, mono-unsaturated and n-3 polyunsaturated fatty acids; cited from earlier work.
A short description of data set [1]: Fatty acid composition in plasma phospholipids of guinea pig pups after suckling/weaning diet. The class given is in vivo. The conditions noted are these: compared to the control group, Table 2. An excerpt:
(§1) This example investigates the effect of feeding diets supplemented or not with ARA to newborn guinea pig pups on the development of total fat mass of the pups in the post-weaning period. The infant guinea pig is considered to be a good animal model to study the development fat mass in human infants: Indeed, like newborn human infants, guinea pig pups are born with an appreciable amount of body fat whilst newborn rat and mice pups are very lean. Newborn male guinea pigs were divided into two groups with 20 animals per group. Each group was fed a suckling/weaning diet in which 44% of the energy was supplied by fat for 21 days. The different diets were isocaloric and differed only in their ARA contents. The ARA diet contained 1.5% ARA based on total fatty acids and the control diet contained no ARA. The group receiving ARA diet is coded “ARA diet” or “+AA” in the below and in the figures. The group receiving no ARA is coded “control diet” or −AA″ in the below and in the figures. The levels of linoleic acid and α-linolenic acid were kept relatively constant between the diets such that the ratio of linoleic acid to α-linolenic acid was about 35. […] Body weight and fat mass were recorded at days 21, 51, 79, 107, 128 and 136 and plasma fatty acid composition, and plasma insulin concentrations were recorded at day 21 and day 136.

For data set [2] the following is noted: generally observed, estimated; cited from earlier work.
A short description of data set [3]: Fatty acid composition in plasma triglycerides of guinea pig pups after suckling/weaning diet. Format: in vivo. The conditions noted are these: compared to the control group, Table 3.
From the text: as §1

SMILES strings stand for the structures.

Turning to `CCCCC[C@H](O)/C=C/[C@@H]1[C@H]2C/C(=C/CCCC(=O)O)C[C@H]2C[C@H]1O` [carbacyclin, reference compound], the “differentiation of clonal preadipocytes” value with clonal preadipocytes is listed as “mimicked”.
Regarding `CCCCC/C=C\C/C=C\C/C=C\C/C=C\CCCC(=O)O` [ARA, arachidonic acid (C20:4n-6)], the “incorporation of ARA in plasma phospholipids” value in data set [1] was “higher”. In addition, in data set [2], the “maximum amount of ARA in the diet that does not induce adverse effects” value is on record as “about 100 mg ARA/kg/day”. Also, in data set [3], the “incorporation of ARA in plasma triglycerides” value was “higher”. Further, the “differentiation of clonal preadipocytes” value with clonal preadipocytes was “substantially promoted”.
